Assay results as given in patent US9579314B2 (priority 2015, dated 2017).

Assays:
Human M3 receptor = Human M3 receptor (Homo sapiens, UniProt P20309); settings: read-out: M3 binding affinity
Human β2 adrenoceptor = Human β2 adrenoceptor (Homo sapiens, UniProt P07550); settings: read-out: B2 binding affinity
Human β2 adrenoceptor, sequence (P07550 whole entry): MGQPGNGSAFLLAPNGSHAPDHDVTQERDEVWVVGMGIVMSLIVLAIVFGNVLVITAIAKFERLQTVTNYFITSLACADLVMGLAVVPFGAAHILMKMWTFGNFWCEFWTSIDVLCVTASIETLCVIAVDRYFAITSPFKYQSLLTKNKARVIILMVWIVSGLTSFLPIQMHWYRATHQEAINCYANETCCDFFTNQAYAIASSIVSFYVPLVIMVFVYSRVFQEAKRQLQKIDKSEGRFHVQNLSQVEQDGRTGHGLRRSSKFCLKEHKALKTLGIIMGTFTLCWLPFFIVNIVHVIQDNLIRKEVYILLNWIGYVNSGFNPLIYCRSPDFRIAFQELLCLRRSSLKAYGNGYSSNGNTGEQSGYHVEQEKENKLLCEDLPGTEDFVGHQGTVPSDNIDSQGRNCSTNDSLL

Human M3 receptor, sequence (P20309 whole entry): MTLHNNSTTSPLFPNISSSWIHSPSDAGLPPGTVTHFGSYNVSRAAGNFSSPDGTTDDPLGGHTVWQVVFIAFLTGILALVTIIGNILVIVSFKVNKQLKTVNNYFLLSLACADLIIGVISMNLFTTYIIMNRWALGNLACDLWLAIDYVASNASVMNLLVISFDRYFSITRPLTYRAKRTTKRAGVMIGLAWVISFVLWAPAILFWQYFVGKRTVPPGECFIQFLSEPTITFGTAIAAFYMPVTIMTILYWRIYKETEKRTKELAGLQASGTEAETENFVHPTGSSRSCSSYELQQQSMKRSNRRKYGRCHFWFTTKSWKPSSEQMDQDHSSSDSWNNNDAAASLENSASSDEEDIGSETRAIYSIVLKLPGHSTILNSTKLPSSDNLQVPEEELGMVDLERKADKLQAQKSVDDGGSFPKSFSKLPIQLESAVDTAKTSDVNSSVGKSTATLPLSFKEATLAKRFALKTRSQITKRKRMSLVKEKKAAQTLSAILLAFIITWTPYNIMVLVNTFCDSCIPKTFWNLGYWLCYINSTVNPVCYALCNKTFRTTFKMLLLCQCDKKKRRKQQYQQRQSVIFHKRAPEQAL

## O=C(c1ccc(CCNC[C@H](O)c2ccc(O)c3[nH]c(=O)ccc23)cc1)N1CCC(C(=O)N2CCC(COc3cccc([C@](O)(C(=O)OCC4CCN(Cc5ccccc5)CC4)c4ccccc4)c3)CC2)CC1 [Compound 151, (1-Benzylpiperidin-4-yl)methyl (S)-2-hydroxy-2-(3-((1-(1-(4-(2-(((R)-2-hydroxy-2-(8-hydroxy-2-oxo-1,2-dihydroquinolin-5-yl)ethyl)amino)ethyl)benzoyl)piperidine-4-carbonyl)piperidin-4-yl)methoxy)phenyl)-2-phenylacetate]
Human M3 receptor
  IC50: < 300 pM
Human β2 adrenoceptor
  IC50: < 300 pM

## O=C(N[C@@H]1CCCN(C(=O)COc2cccc([C@](O)(C(=O)OCC3CCN(Cc4ccccc4)CC3)c3ccccc3)c2)C1)c1ccc(CCNC[C@H](O)c2ccc(O)c3[nH]c(=O)ccc23)cc1 [Compound 113, (1-benzylpiperidin-4-yl)methyl (S)-2-hydroxy-2-(3-(2-((R)-3-(4-(2-(((R)-2-hydroxy-2-(8-hydroxy-2-oxo-1,2-dihydroquinolin-5-yl)ethyl)amino)ethyl)benzamido)piperidin-1-yl)-2-oxoethoxy)phenyl)-2-phenylacetate]
Human M3 receptor
  IC50: 300 to 3000 pM
Human β2 adrenoceptor
  IC50: 300 to 3000 pM

## COc1cc(CNC[C@H](O)c2ccc(O)c3[nH]c(=O)ccc23)ccc1C(=O)N[C@H]1C[C@H](NC(=O)COc2cccc([C@](O)(C(=O)OCC3CCN(Cc4ccccc4)CC3)c3ccccc3)c2)C1 [Compound 130, (S)-(1-benzylpiperidin-4-yl)methyl 2-hydroxy-2-(3-(2-(((1R,3S)-3-(4-((((R)-2-hydroxy-2-(8-hydroxy-2-oxo-1,2-dihydroquinolin-5-yl)ethyl)amino)methyl)-2-methoxybenzamido)cyclobutyl)amino)-2-oxoethoxy)phenyl)-2-phenylacetate]
Human M3 receptor
  IC50: 300 to 3000 pM
Human β2 adrenoceptor
  IC50: 300 to 3000 pM

## O=C(NCCc1cccc(C(O)(C(=O)OCC2CCN(Cc3ccccc3)CC2)c2ccccc2)c1)c1ccc(CNCC(O)c2ccc(O)c3[nH]c(=O)ccc23)cc1 (stereo in doubt) [Compound 39, (1-benzylpiperidin-4-yl)methyl 2-hydroxy-2-(3-(2-(4-((((R)-2-hydroxy-2-(8-hydroxy-2-oxo-1,2-dihydroquinolin-5-yl)ethyl)amino)methyl)benzamido)ethyl)phenyl)-2-phenylacetate]
Human M3 receptor
  IC50: 300 to 3000 pM
Human β2 adrenoceptor
  IC50: < 300 pM

## O=C(COc1cccc([C@](O)(C(=O)OCC2CCN(Cc3ccccc3)CC2)c2ccccc2)c1)N1CCCC2(CCN(C(=O)c3ccc(CCNC[C@H](O)c4ccc(O)c5[nH]c(=O)ccc45)cc3)CC2)C1 [Compound 99, (1-benzylpiperidin-4-yl)methyl (S)-2-hydroxy-2-(3-(2-(9-(4-(2-(((R)-2-hydroxy-2-(8-hydroxy-2-oxo-1,2-dihydroquinolin-5-yl)ethyl)amino)ethyl)benzoyl)-2,9-diazaspiro[5.5]undecan-2-yl)-2-oxoethoxy)phenyl)-2-phenylacetate]
Human M3 receptor
  IC50: 300 to 3000 pM
Human β2 adrenoceptor
  IC50: 300 to 3000 pM

## CN1CCC(COC(=O)[C@](O)(c2ccccc2)c2cccc(OCCCNC(=O)c3ccc(CNC[C@H](O)c4ccc(O)c5[nH]c(=O)ccc45)cc3)c2)CC1 [Compound 162, (1-methylpiperidin-4-yl)methyl (S)-2-hydroxy-2-(3-(3-(4-((((R)-2-hydroxy-2-(8-hydroxy-2-oxo-1,2-dihydroquinolin-5-yl)ethyl)amino)methyl)benzamido)propoxy)phenyl)-2-phenylacetate]
Human M3 receptor
  IC50: 300 to 3000 pM
Human β2 adrenoceptor
  IC50: < 300 pM

## O=C(N[C@@H]1CCCN(C(=O)COc2cccc([C@](O)(C(=O)OCC3CCN(Cc4ccccc4)CC3)c3ccccc3)c2)C1)c1ccc(CNC[C@H](O)c2ccc(O)c3[nH]c(=O)ccc23)cc1 [Compound 75, (1-benzylpiperidin-4-yl)methyl (S)-2-hydroxy-2-(3-(2-((R)-3-(4-((((R)-2-hydroxy-2-(8-hydroxy-2-oxo-1,2-dihydroquinolin-5-yl)ethyl)amino)methyl)benzamido)piperidin-1-yl)-2-oxoethoxy)phenyl)-2-phenylacetate]
Human M3 receptor
  IC50: 300 to 3000 pM
Human β2 adrenoceptor
  IC50: > 3000 pM

## O=C(c1ccc(CNC[C@H](O)c2ccc(O)c3[nH]c(=O)ccc23)cc1)N1C[C@H]2CCN(C(=O)COc3cccc([C@](O)(C(=O)OCC4CCN(Cc5ccccc5)CC4)c4ccccc4)c3)[C@H]2C1 [Compound 74, (1-benzylpiperidin-4-yl)methyl (S)-2-hydroxy-2-(3-(2-((3aR,6aR)-5-(4-((((R)-2-hydroxy-2-(8-hydroxy-2-oxo-1,2-dihydroquinolin-5-yl)ethyl)amino)methyl)benzoyl)hexahydropyrrolo[3,4-b]pyrrol-1(2H)-yl)-2-oxoethoxy)phenyl)-2-phenylacetate]
Human M3 receptor
  IC50: 300 to 3000 pM
Human β2 adrenoceptor
  IC50: 300 to 3000 pM

## O=C(COc1cccc([C@](O)(C(=O)OCC2CCN(Cc3ccccc3)CC2)c2ccccc2)c1)N1C[C@@H]2CCN(C(=O)c3ccc(CCNC[C@H](O)c4ccc(O)c5[nH]c(=O)ccc45)cc3)[C@@H]2C1 [Compound 112, (1-benzylpiperidin-4-yl)methyl (S)-2-hydroxy-2-(3-(2-((3aS,6aS)-1-(4-(2-(((R)-2-hydroxy-2-(8-hydroxy-2-oxo-1,2-dihydroquinolin-5-yl)ethyl)amino)ethyl)benzoyl)hexahydropyrrolo[3,4-b]pyrrol-5(1H)-yl)-2-oxoethoxy)phenyl)-2-phenylacetate]
Human M3 receptor
  IC50: 300 to 3000 pM
Human β2 adrenoceptor
  IC50: < 300 pM

## O=C(NCCCCNC[C@H](O)c1ccc(O)c2[nH]c(=O)ccc12)c1cccc(C(O)(C(=O)OCC2CCN(Cc3ccccc3)CC2)c2ccccc2)c1 (stereo partly drawn) [Compound 47, (1-benzylpiperidin-4-yl)methyl 2-hydroxy-2-(3-((4-(((R)-2-hydroxy-2-(8-hydroxy-2-oxo-1,2-dihydroquinolin-5-yl)ethyl)amino)butyl)carbamoyl)phenyl)-2-phenylacetate diformate]
Human M3 receptor
  IC50: 300 to 3000 pM
Human β2 adrenoceptor
  IC50: < 300 pM

## O=C(NCCCOc1cccc([C@](O)(C(=O)OCC2CCN(Cc3ccccc3)CC2)c2ccccc2)c1)c1ccc(CNC[C@H](O)c2ccc(O)c3[nH]c(=O)ccc23)cc1Cl [Compound 32H, (S)-(1-benzylpiperidin-4-yl)methyl 2-(3-(3-(2-chloro-4-((((R)-2-hydroxy-2-(8-hydroxy-2-oxo-1,2-dihydroquinolin-5-yl)ethyl)amino)methyl)benzamido)propoxy)phenyl)-2-hydroxy-2-phenylacetate]
Human M3 receptor
  IC50: 300 to 3000 pM
Human β2 adrenoceptor
  IC50: < 300 pM

## O=C(COc1cccc([C@](O)(C(=O)OCC2CCN(Cc3ccccc3)CC2)c2ccccc2)c1)N1CC2(CCCN(C(=O)c3ccc(CCNC[C@H](O)c4ccc(O)c5[nH]c(=O)ccc45)cc3)C2)C1 [Compound 98, (1-benzylpiperidin-4-yl)methyl (S)-2-hydroxy-2-(3-(2-(6-(4-(2-(((R)-2-hydroxy-2-(8-hydroxy-2-oxo-1,2-dihydroquinolin-5-yl)ethyl)amino)ethyl)benzoyl)-2,6-diazaspiro[3.5]nonan-2-yl)-2-oxoethoxy)phenyl)-2-phenylacetate]
Human M3 receptor
  IC50: 300 to 3000 pM
Human β2 adrenoceptor
  IC50: 300 to 3000 pM

## O=C(N[C@@H]1CCN(C(=O)COc2cccc([C@](O)(C(=O)OCC3CCN(Cc4ccccc4)CC3)c3ccccc3)c2)C1)c1ccc(CNC[C@H](O)c2ccc(O)c3[nH]c(=O)ccc23)cc1 [Compound 76, (1-benzylpiperidin-4-yl)methyl (S)-2-hydroxy-2-(3-(2-((R)-3-(4-((((R)-2-hydroxy-2-(8-hydroxy-2-oxo-1,2-dihydroquinolin-5-yl)ethyl)amino)methyl)benzamido)pyrrolidin-1-yl)-2-oxoethoxy)phenyl)-2-phenylacetate]
Human M3 receptor
  IC50: 300 to 3000 pM
Human β2 adrenoceptor
  IC50: 300 to 3000 pM

## O=C(COc1cccc([C@](O)(C(=O)OCC2CCN(Cc3ccccc3)CC2)c2ccccc2)c1)N1CC2(CCN(C(=O)c3ccc(CCNC[C@H](O)c4ccc(O)c5[nH]c(=O)ccc45)cc3)CC2)C1 [Compound 94, (1-benzylpiperidin-4-yl)methyl (S)-2-hydroxy-2-(3-(2-(7-(4-(2-(((R)-2-hydroxy-2-(8-hydroxy-2-oxo-1,2-dihydroquinolin-5-yl)ethyl)amino)ethyl)benzoyl)-2,7-diazaspiro[3.5]nonan-2-yl)-2-oxoethoxy)phenyl)-2-phenylacetate]
Human M3 receptor
  IC50: < 300 pM
Human β2 adrenoceptor
  IC50: < 300 pM

## COc1cc(C(=O)NCc2ccc(COc3cccc([C@](O)(C(=O)OCC4CCN(Cc5ccccc5)CC4)c4ccccc4)c3)cc2)ccc1CNC[C@H](O)c1ccc(O)c2[nH]c(=O)ccc12 [Compound 42F, (1-benzylpiperidin-4-yl)methyl (S)-2-hydroxy-2-(3-((4-((4-((((R)-2-hydroxy-2-(8-hydroxy-2-oxo-1,2-dihydroquinolin-5-yl)ethyl)amino)methyl)-3-methoxybenzamido)methyl)benzyl)oxy)phenyl)-2-phenylacetate]
Human M3 receptor
  IC50: 300 to 3000 pM
Human β2 adrenoceptor
  IC50: < 300 pM

## O=C(COc1cccc([C@](O)(C(=O)OCC2CCN(Cc3ccccc3)CC2)c2ccccc2)c1)NCC(=O)N1CCC(CNC[C@H](O)c2ccc(O)c3[nH]c(=O)ccc23)CC1 [Compound 150, (1-benzylpiperidin-4-yl)methyl (S)-2-hydroxy-2-(3-(2-((2-(4-((((R)-2-hydroxy-2-(8-hydroxy-2-oxo-1,2-dihydroquinolin-5-yl)ethyl)amino)methyl)piperidin-1-yl)-2-oxoethyl)amino)-2-oxoethoxy)phenyl)-2-phenylacetate]
Human M3 receptor
  IC50: < 300 pM
Human β2 adrenoceptor
  IC50: < 300 pM

## O=C(COc1cccc([C@](O)(C(=O)OCC2CCN(Cc3ccccc3)CC2)c2ccccc2)c1)NC1CCN(C(=O)c2ccc(CNC[C@H](O)c3ccc(O)c4[nH]c(=O)ccc34)cc2)CC1 [Compound 65, (1-benzylpiperidin-4-yl)methyl (S)-2-hydroxy-2-(3-(2-((1-(4-((((R)-2-hydroxy-2-(8-hydroxy-2-oxo-1,2-dihydroquinolin-5-yl)ethyl)amino)methyl)benzoyl)piperidin-4-yl)amino)-2-oxoethoxy)phenyl)-2-phenylacetate]
Human M3 receptor
  IC50: < 300 pM
Human β2 adrenoceptor
  IC50: 300 to 3000 pM
